Results on two substances are retold here after US20230212246A1, “TGF-B AS A THERAPEUTIC TARGET FOR INTRACRANIAL ANEURYSM” (THE BOARD OF REGENTS OF THE UNIVERSITY OF TEXAS SYSTEM, priority 2022, published 2023).

Assay [1] relates to p-Smad2. Put plainly: Activin treatment time course of p-Smad2 in HBMEC. The class given is cell-based, human. The note with it: HBMEC cells, FIG. 6a. Here is the method:
(§1) Cells were lysed in 1% Triton lysis buffer and sonicated briefly before centrifuged at 18506 g for 30 min at 4° C. Total cell lysates were added by 2X SDS sample buffer and then subjected to discontinuous SDS-PAGE analysis. Proteins were transferred to nitro-cellulose membranes using a Bio-Rad (Hercules, Calif.) mini transfer apparatus followed by blocking with 5% nonfat milk. Primary antibodies and secondary antibodies were used usually at 1:1000 and 1:10000 dilutions respectively before using an Odyssey system to detect the fluorescence signal.
(§2) FIG. 3 is a drawing depicting a representative model of the TGFβ pathway. […] As depicted in FIG. 3, it is possible to monitor the phosphorylation level of Smad2 or Samd3 as a reporter for TGFβ signaling activity.
To evaluate the specificity of the requirement for THSD1 for TGFβ signaling in endothelial cells we also tested Activin treatment. […] FIG. 7 is a schematic illustrating that THSD1 has a thrombospondin domain (TSP1) that interacts with mature TGFβ ligand.

The subject of assay [2] is p-Smad2. Nature of the assay: TGFβ treatment time course of p-Smad2 in HBMEC. The class given is cell-based, human. The note with it: FIG. 5a. The protocol: as §1, §2
(§3) To further investigate a potential role for the TGFβ Signaling pathway in the pathology of aneurysms, specifically IA, we also tested TGFβ treatment in different endothelial cells including HBMEC and HUVEC. HBMEC is a primary brain endothelial cells and HUVEC is primary umbilical vein endothelial cells. […] THSD1 knockdown can block TGFβ signaling.

The test system of assay [3] is p-Smad2. Put plainly: TGFβ treatment time course of p-Smad2 in HUVEC. The note with it: HUVEC (cell line not restated), FIG. 5c. Type of assay: cell-based, human. The protocol: as §1, §2, §3
Assay [4] concerns p-Smad2. Nature of the assay: TGFβ1 time course of p-Smad2 (Western blot) in HEK293T cells. Type of assay: cell-based. The note with it: HEK293T cells treated with TGFβ1 at different time points, FIG. 4a. Here is the method:
HEK293T cells were maintained in DMEM medium (Corning, 10-013-CV) containing 10% fetal bovine serum (Invitrogen, 10082147), 100 IU penicillin, and 100 μg/ml streptomycin. Transfections of small interfering RNAs and plasmid DNA were performed using lipofectamine 2000 (Life Technologies, 11668027) according to the manufacturer's instructions. Alternatively, for cells such as endothelial cells that are hard to transfect, we will utilize lentiviral system to generate stable cell lines.
as §1
FIG. 3 is a drawing depicting a representative model of the TGFβ pathway. […] As depicted in FIG. 3, it is possible to monitor the phosphorylation level of Smad2 or Samd3 as a reporter for TGFβ signaling activity. […]

For the substance Activin, the “time at which p-smad2 reaches the highest level” value with p-Smad2 [1] is “around 40 mins”.

For “TGFβ1: TGFβ ligand; polypeptide used to treat cells and induce Smad2 phosphorylation”, the “time at which p-Smad2 reaches the maximum level” value in the assay on p-Smad2 [2] is given as “around 40 mins”. In the assay on p-Smad2 [3], the “time at which p-smad2 reaches the highest level” value is listed as “around 40 mins”. The “time at which p-Smad2 reaches plateau” value with p-Smad2 [4] is 60 min.
